Data taken from ChEMBL document CHEMBL4020781, “Discovery of potent and orally active 1,4-disubstituted indazoles as novel allosteric glucokinase activators” (Bioorg Med Chem Lett, 2017).
Activity calls are given as the source filed them. The calls are words filed in the database; no cut-off is given here.

Assays:
[1] = target: T1, Hexokinase-4 (Homo sapiens) (UniProt P35557); test: Activation of full length human C-terminal FLAG-tagged glucokinase (12 to 465 residues) expressed in Escherichia coli DH10b using glucose as substrate after 60 mins in presence of ATP by kinase-glo luminescence assay relative to control
T1 sequence (whole entry): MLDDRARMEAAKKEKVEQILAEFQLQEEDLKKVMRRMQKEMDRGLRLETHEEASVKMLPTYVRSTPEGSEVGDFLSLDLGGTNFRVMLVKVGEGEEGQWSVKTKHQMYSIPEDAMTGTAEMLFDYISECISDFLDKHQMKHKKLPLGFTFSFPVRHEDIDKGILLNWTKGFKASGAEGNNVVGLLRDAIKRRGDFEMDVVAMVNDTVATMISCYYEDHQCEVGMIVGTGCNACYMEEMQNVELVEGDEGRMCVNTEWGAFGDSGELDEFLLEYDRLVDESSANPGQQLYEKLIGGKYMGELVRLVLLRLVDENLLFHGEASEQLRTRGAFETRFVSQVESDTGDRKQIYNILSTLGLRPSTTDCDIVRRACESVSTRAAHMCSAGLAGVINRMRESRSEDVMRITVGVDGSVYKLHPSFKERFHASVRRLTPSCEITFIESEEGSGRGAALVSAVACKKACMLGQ

[2] = target: T2, Hexokinase-4 (Homo sapiens, UniProt P35557); test: Activation of full length human C-terminal FLAG-tagged glucokinase (12 to 465 residues) expressed in Escherichia coli DH10b using glucose as substrate after 60 mins in presence of ATP by kinase-glo luminescence assay
T2 sequence (P35557 whole entry): T1 sequence (whole entry)

[3] = target: hERG (KCNH2) (Homo sapiens, UniProt Q12809); test: Inhibition of human ERG at 10 uM
Sequence of hERG (KCNH2) (Q12809 whole entry): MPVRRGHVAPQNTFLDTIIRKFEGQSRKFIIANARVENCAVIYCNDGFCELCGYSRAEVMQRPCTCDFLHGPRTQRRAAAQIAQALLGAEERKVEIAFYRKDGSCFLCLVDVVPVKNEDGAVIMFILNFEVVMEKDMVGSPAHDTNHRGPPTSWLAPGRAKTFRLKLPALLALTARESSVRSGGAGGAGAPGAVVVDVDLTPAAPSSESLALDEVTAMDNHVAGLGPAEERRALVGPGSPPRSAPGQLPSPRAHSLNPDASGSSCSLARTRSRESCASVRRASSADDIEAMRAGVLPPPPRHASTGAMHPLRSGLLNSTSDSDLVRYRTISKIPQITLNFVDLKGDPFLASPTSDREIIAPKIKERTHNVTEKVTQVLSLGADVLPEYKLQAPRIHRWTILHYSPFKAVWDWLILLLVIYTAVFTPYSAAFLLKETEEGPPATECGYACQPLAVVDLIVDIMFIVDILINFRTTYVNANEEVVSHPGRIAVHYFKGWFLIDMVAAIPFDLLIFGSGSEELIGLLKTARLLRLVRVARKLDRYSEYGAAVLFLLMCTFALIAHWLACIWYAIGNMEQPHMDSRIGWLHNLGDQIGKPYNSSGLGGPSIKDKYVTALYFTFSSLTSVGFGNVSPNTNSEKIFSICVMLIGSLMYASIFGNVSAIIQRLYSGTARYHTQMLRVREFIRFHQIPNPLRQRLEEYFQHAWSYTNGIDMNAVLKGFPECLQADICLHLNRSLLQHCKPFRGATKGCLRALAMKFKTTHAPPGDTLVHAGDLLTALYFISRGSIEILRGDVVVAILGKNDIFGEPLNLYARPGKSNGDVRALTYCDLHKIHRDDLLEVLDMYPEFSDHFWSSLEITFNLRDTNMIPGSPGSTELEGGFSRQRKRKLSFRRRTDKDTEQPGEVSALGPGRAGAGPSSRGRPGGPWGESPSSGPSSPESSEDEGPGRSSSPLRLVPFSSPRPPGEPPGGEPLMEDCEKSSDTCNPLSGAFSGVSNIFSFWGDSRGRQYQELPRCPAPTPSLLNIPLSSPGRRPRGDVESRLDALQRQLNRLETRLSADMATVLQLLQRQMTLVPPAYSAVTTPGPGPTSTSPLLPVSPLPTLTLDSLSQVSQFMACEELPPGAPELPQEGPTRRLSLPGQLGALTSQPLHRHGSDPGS

[4] = test system: Mus musculus; test: Antidiabetic activity in ob/ob mouse assessed as reduction in glucose excursion at 30 mg/kg, po by oral glucose tolerance test; format: functional, organism-based
[5] = Hepatic extraction ratio in rat liver microsomes; format: ADME, microsome; conditions: read-out: ERH
[6] = Clearance in orally dosed rat; format: ADME, organism-based; conditions: in vivo, po
[7] = Hepatic extraction ratio in mouse liver microsomes; format: ADME, microsome; conditions: read-out: ERH
[8] = test system: Rattus norvegicus; test: Volume of distribution in orally dosed rat; format: ADME, organism-based; conditions: in vivo, po
[9] = Half life in orally dosed rat; format: ADME, organism-based; conditions: in vivo, po
[10] = test system: Mus musculus; test: Antidiabetic activity in C57BL/6J mouse assessed as glucose lowering effect at 30 mg/kg, po; format: functional, organism-based
[11] = Hepatic extraction ratio in human liver microsomes; format: ADME, microsome; conditions: read-out: ERH
[12] = Oral bioavailability in rat; format: ADME, organism-based; conditions: in vivo
[13] = target: T1, Hexokinase-4 (Homo sapiens); test: Potency index, ratio of (S)-N-(5-chlorothiazol-2-yl)-2-(4-(cyclopropylsulfonyl)-6-methyl-2-oxopyridin-1(2H)-yl)-3-(tetrahydro-2H-pyran-4-yl)propanamide EC50 to compound EC50 for full length human C-terminal FLAG-tagged glucokinase (12 to 465 residues)
[14] = Plasma protein binding in human; format: ADME, cell-free; conditions: read-out: PPB (converted)

SMILES | %max [1] | EC50 [2] | inhibition at 10 µM [3] | other results
O=C(Nc1ncc(F)s1)C(CC1CCOCC1)n1cc(S(=O)(=O)c2cccc(Cl)c2)cn1 (racemic) | 0% | > 100000 nM | – | –
COc1cc(S(=O)(=O)C2CC2)c2cnn([C@@H](CC3CCOCC3)C(=O)Nc3ncc(F)s3)c2c1 | 100% | 100 nM | 78% | –
O=C(Nc1ncc(F)s1)[C@H](CC1CCOCC1)n1ncc2c(S(=O)(=O)C3CC3)ccnc21 | 74% | 120 nM | 71% | –
O=C(Nc1cnccn1)[C@H](CC1CCOCC1)n1ncc2c(S(=O)(=O)C3CC3)cccc21 | 95% | 790 nM | 45% | –
NC(=O)c1cc(S(=O)(=O)C2CC2)c2cnn([C@@H](CC3CCOCC3)C(=O)Nc3ncc(F)s3)c2c1 | 97% | 100 nM | – | –
N#Cc1cc(S(=O)(=O)C2CC2)c2cnn(C(CC3CCOCC3)C(=O)Nc3ncc(F)s3)c2c1 (racemic) | 74% | 100 nM | 83% | –
NC(=O)c1cnc(NC(=O)C(CC2CCOCC2)n2ncc3c(S(=O)(=O)C4CC4)cccc32)s1 (racemic) | 49% | 1600 nM | 26% | –
Cc1cc(S(=O)(=O)C2CC2)cc(=O)n1[C@@H](CC1CCOCC1)C(=O)Nc1ncc(Cl)s1 | 77% | 1200 nM | – | Activity [4]: Active
O=C(Nc1ncc(F)s1)[C@H](CC1CCOCC1)n1ncc2c(S(=O)(=O)C3CC3)cc(F)cc21 | 91% | 120 nM | 77% | –
CC(C)(C)S(=O)(=O)c1cnn(C(CC2CCOCC2)C(=O)Nc2ncc(F)s2)c1 (racemic) | 0% | > 100000 nM | – | –
O=C(Nc1ncc(F)s1)[C@H](CC1CCOCC1)n1ncc2c(S(=O)(=O)C3CC3)cncc21 | 71% | 80 nM | 46% | hepatic extraction ratio [5]: 0.33; CL/F [6]: 29 mL/min/kg; hepatic extraction ratio [7]: 0.56; Vd [8]: 1.9 L/kg; half-life [9]: 4.3 h; Activity [10]: Active; hepatic extraction ratio [11]: 0.59; bioavailability [12]: 51%; Activity [4]: Active
O=C(Nc1ncc(Cl)s1)[C@H](CC1CCOCC1)n1ncc2c(S(=O)(=O)C3CC3)cccc21 | 65% | 31 nM | 85 to 93% | Ratio EC50 [13]: 40; fraction unbound [14]: 0.0004; hepatic extraction ratio [11]: 0.67
O=C(Nc1ncc(Cl)s1)C(CC1CCOCC1)n1ncc2ccc(S(=O)(=O)C3CC3)cc21 (racemic) | 0% | > 100000 nM | – | –
O=C(Nc1ncc(Cl)s1)[C@H](CC1CCOCC1)n1ncc2cc(S(=O)(=O)C3CC3)ccc21 | 26% | 500 nM | – | –
O=C(Nc1ncc(Cl)s1)[C@H](CC1CCCC1)n1cc(S(=O)(=O)C2CC2)cn1 | 88% | 630 nM | – | hepatic extraction ratio [5]: 0.85; hepatic extraction ratio [11]: 0.91
O=C(Nc1ncc(F)s1)[C@H](CC1CCOCC1)n1cc(S(=O)(=O)C2CC2)cn1 | 37% | 4000 nM | – | hepatic extraction ratio [5]: 0.31 to 0.39; hepatic extraction ratio [11]: 0.31 to 0.39
O=C(Nc1ncc(F)s1)[C@H](CC1CCCC1)n1cc(S(=O)(=O)C2CC2)cn1 | 73% | 630 nM | – | hepatic extraction ratio [5]: 0.85; hepatic extraction ratio [11]: 0.91
O=C(Nc1ccn(CCO)n1)C(CC1CCOCC1)n1ncc2c(S(=O)(=O)C3CC3)cccc21 (racemic) | 73% | 3100 nM | 12.5% | –
O=C(Nc1ncc(Cl)s1)[C@H](CC1CCOCC1)n1cc(S(=O)(=O)C2CC2)cn1 | 35% | 2000 nM | – | hepatic extraction ratio [5]: 0.31 to 0.39; hepatic extraction ratio [11]: 0.31 to 0.39
Cn1ccc(NC(=O)C(CC2CCOCC2)n2ncc3c(S(=O)(=O)C4CC4)cccc32)n1 (racemic) | 79% | 1200 nM | 23% | –
Cc1ccc(NC(=O)C(CC2CCOCC2)n2ncc3c(S(=O)(=O)C4CC4)cccc32)nn1 (racemic) | 50% | 7900 nM | 57% | –
O=C(Nc1ncc(F)s1)[C@H](CC1CCOCC1)n1ncc2c(S(=O)(=O)C3CC3)cccc21 | 83% | 40 nM | 84% | –
O=C(Nc1ncc(F)s1)[C@H](CC1CCOCC1)n1ncc2c(S(=O)(=O)C3CC3)cc(O)cc21 | 96% | 100 nM | – | –
Cc1nnc(NC(=O)C(CC2CCOCC2)n2ncc3c(S(=O)(=O)C4CC4)cccc32)s1 (racemic) | 74% | 5000 nM | 23% | –
O=C(Nc1ncc(Cl)s1)[C@H](CC1CCOCC1)n1cc(S(=O)(=O)C2CCCC2)cn1 | 32% | 1000 nM | – | –
NC(=O)c1cccnc1NC(=O)C(CC1CCOCC1)n1ncc2c(S(=O)(=O)C3CC3)cccc21 (racemic) | 38% | 200 nM | 29% | –
